From US6479499B1 come the findings set out here.

Converted amounts (≈) assume the structure as drawn. Where two headings read alike, the source gives them in different places. Bounds are passed on as bounds.

Assay [1] relates to platelet aggregation induced by arachidonic acid (AA). The assay is described as follows: Antiplatelet assay, arachidonic acid-induced aggregation. The assay is classed as cell-based, rabbit. The following applies: AA 100 μM, 37° C., 1 min preincubation, read-out: IC50, platelet aggregation induced by arachidonic acid (in vitro) (Table 6). The procedure: c. Antiplatelet assay. Blood, collected from the marginal ear vein of rabbits was mixed with EDTA to a final concentration of 6 mM and centrifuged at 90 g for 10 mm at room temperature to obtain platelet-rich plasma. The latter was further centrifuged at 500 g for 10 mm and the platelets were washed with Tyrode's solution without EDTA. After centrifugation at the same conditions, the platelets were suspended in Tyrode's solution with the following compositions (mM): NaCl (136.8), KCl (2.8), NaNCO3(11.9), MgCl2(1.1), NaH2PO4(0.33), CaCl2(1.0), and glucose (11.2). Platelet numbers were determined with a Coulter Counter (Model ZM) and adjusted to 4.5×10^8 platelets/ml.
Aggregation was measured by the turbidimetric method [O'brien, J. R. J. Clin. Pathol. 1962, 15,452] with a dual-channel Lumi aggregometer (Model 1020, Payton, Canada). All glass ware was siliconized. Test compounds were added one minute before the addition of the aggregation inducer and the platelet suspension was stirred at 900 rpm. The percentage of aggregation was calculated as previously described [Teng, C. M.; Chen, W. Y.; Ko, W. C.; Ouyang, C. Biochem. Biophys. Acta. 1987, 924, 375].

The test system of assay [2] is epidermoid carcinoma of the nasopharynx (KB). Description: In vitro cytotoxicity, KB. Particulars: Homo sapiens; for IC50: 96 h, read-out: ED50 KB; for inhibition at 20 µg/mL: read-out: Inhibition at highest test concentration (in brackets), KB.
Assay [3] relates to human ovarian cancer (1A9). The assay is described as follows: In vitro cytotoxicity, 1A9. Particulars: 96 h, read-out: ED50 1A9.
The next assay deals with bone (HOS). The assay is described as follows: In vitro cytotoxicity, HOS. The following applies: Homo sapiens; for IC50: 96 h, read-out: ED50 HOS; for inhibition at 20 µg/mL: read-out: Inhibition at highest test concentration (in brackets), HOS.
A further assay concerns prostate cancer (PC3). The assay is described as follows: In vitro cytotoxicity, PC3. The following applies: Homo sapiens; for IC50: 96 h, read-out: ED50 PC3; for inhibition at 20 µg/mL: read-out: Inhibition at highest test concentration (in brackets), PC3.
For assay [4], the system named is ileocecal carcinoma (HCT-8). The assay is described as follows: In vitro cytotoxicity, HCT-8. Particulars: Homo sapiens; for IC50: HCT-8, 96 h, read-out: ED50 HCT-8; for inhibition at 20 µg/mL: HCT-8, read-out: Inhibition at highest test concentration (in brackets), HCT-8.
The next assay deals with lung carcinoma (A-549). Description: In vitro cytotoxicity, A-549. Particulars: Homo sapiens; for IC50: A549, 96 h, read-out: ED50 A-549; for inhibition at 20 µg/mL: A549, read-out: Inhibition at highest test concentration (in brackets), A-549.
In a further assay the test system is breast cancer (MCF-7). Description: In vitro cytotoxicity, MCF-7. The following applies: Homo sapiens; for IC50: MCF7, 96 h, read-out: ED50 MCF-7; for inhibition at 20 µg/mL: MCF7, read-out: Inhibition at highest test concentration (in brackets), MCF-7.
Assay [5] has as its system P-gp-expressing epidermoid carcinoma of the nasopharynx (KB-VIN). Description: In vitro cytotoxicity, KB-VIN. The following applies: Homo sapiens, KBVIN; for IC50: 96 h, read-out: ED50 KB-VIN.
A further assay deals with melanoma (SKMEL-2). Description: In vitro cytotoxicity, SKMEL-2. The following applies: for IC50 / inhibition at 20 µg/mL: Homo sapiens; for IC50: SK-MEL-2, 96 h, read-out: ED50 SKMEL-2; for Inhibition value of plateau-dose response (in brackets), SKMEL-2: inhibition plateaus over broad dose range; for inhibition at 20 µg/mL: SK-MEL-2, read-out: Inhibition at highest test concentration (in brackets), SKMEL-2.

In a further assay the test system is bovine brain tubulin. Description: Tubulin polymerization assay (antimicrotubule assay). Particulars: read-out: ITP (inhibition of tubulin polymerization) IC50; tubulin […] (12 μM), 26° C., 20 min.
The mark [6] stands for this setting: Oryctolagus cuniculus, Platelet.

With `CCOC(=O)CCCOc1nc(-c2ccccc2)nc2ccccc12` [Compound 72, 4-Ethoxycarbonylpropoxy-2-phenylquinazoline], the IC50 in assay [1] (setting [6]) came out at 30.7 µM.
In the case of “4-Ethoxycarbonylbutoxy-2-phenylquinazoline [Compound 73]”, in [1], the IC50 was determined as 173 µM.
For `COc1ccc2c(c1)c(CC(=O)O)c(C)n2C(=O)c1ccc(Cl)cc1` [Indomethacin], the IC50 in assay [1] (setting [6]) came to 0.25 µM.
As to `COc1ccccc1C1NC(=O)c2ccccc2N1` (racemic) [Compound 60, 2,3-Dihydro-2-(2′-methoxyphenyl)-4-quinazolinone], the IC50 in [2] is above 20 µg/mL; in assay [3] it was 14.7 µg/mL (≈ 57.8 µM); in the assay on bone (HOS), above 20 µg/mL; with prostate cancer (PC3), above 20 µg/mL; in [4] it was above 20 µg/mL; in the assay with lung carcinoma (A-549) it was above 20 µg/mL. The IC50 in the assay with breast cancer (MCF-7) is above 20 µg/mL; in assay [5] it was 10.2 µg/mL (≈ 40.1 µM); in the assay with melanoma (SKMEL-2), below 20 µg/mL; in the assay with bovine brain tubulin, above 40 µM. Further, the inhibition at 20 µg/mL stood at 32% in [2]; 38% in the assay on bone (HOS); 30% with prostate cancer (PC3); 21% in assay [4]; 44% with lung carcinoma (A-549); 48% with breast cancer (MCF-7). The “Inhibition value of plateau-dose response (in brackets), SKMEL-2” value in the assay on melanoma (SKMEL-2) amounted to 52%.
Turning to `COc1ccc(C2NC(=O)c3ccccc3N2)cc1OC` (racemic) [Compound 66, 2,3-Dihydro-2-(3′,4′-dimethoxyphenyl)-4-quinazolinone], the IC50 was above 20 µg/mL in assay [2]; 14.6 µg/mL (≈ 51.4 µM) in assay [3]; above 20 µg/mL with bone (HOS); above 20 µg/mL in the assay with prostate cancer (PC3); above 20 µg/mL in assay [4]; above 20 µg/mL with lung carcinoma (A-549). For the same molecule, the IC50 is 20 µg/mL (≈ 70.3 µM) in the assay with breast cancer (MCF-7), 16 µg/mL (≈ 56.3 µM) in [5], above 20 µg/mL in the assay on melanoma (SKMEL-2) and above 40 µM in the assay with bovine brain tubulin. Also, the inhibition at 20 µg/mL in assay [2] is 28%; with bone (HOS) it was 24%; with prostate cancer (PC3), 30%; in [4], 25%; in the assay on lung carcinoma (A-549) it was 41%; in the assay on melanoma (SKMEL-2), 24%.
For the molecule `CCOc1nc(-c2cccc(OC)c2)nc2ccccc12` [Compound 75, 4-Ethoxy-2-(3′-methoxyphenyl)quinazoline], the IC50 in [1] (setting [6]) was 69.3 µM.
Turning to “N^3-Ethoxycarbonylmethoxy-2-phenyl-4-quinazolinone [Compound 79]”, the IC50 in assay [1] was above 270 µM.
`CCn1c(-c2ccccc2)nc2ccccc2c1=O` [Compound 78, N^3-Ethyl-2-phenyl-4-quinazolinone]: in assay [1] (setting [6]), the IC50 came to 184 µM.
Consider `CCOC(=O)COc1nc(-c2ccccc2)nc2ccccc12` [Compound 71, 4-Ethoxycarbonylmethoxy-2-phenylquinazoline], for which the IC50 in assay [1] (setting [6]) stood at 26.9 µM.
Regarding `CCOc1nc(-c2ccc(OC)cc2)nc2ccccc12` [Compound 76, 4-Ethoxy-2-(4′-methoxyphenyl)quinazoline], the IC50 in [1] (setting [6]) came out at 5.36 µM.
Turning to `COc1cccc(C2NC(=O)c3ccccc3N2)c1OC` (racemic) [Compound 63, 2,3-Dihydro-2-(2′,3′-dimethoxyphenyl)-4-quinazolinone], the IC50 in [2] is above 20 µg/mL; in assay [3], 11.4 µg/mL (≈ 40.1 µM); in the assay with bone (HOS), above 20 µg/mL; in the assay on prostate cancer (PC3) it was above 20 µg/mL; in assay [4], above 20 µg/mL; in the assay with lung carcinoma (A-549) it was above 20 µg/mL. The IC50 in the assay with breast cancer (MCF-7) is above 20 µg/mL; in assay [5], 8.6 µg/mL (≈ 30.2 µM); in the assay on melanoma (SKMEL-2), below 20 µg/mL; in the assay on bovine brain tubulin it was above 40 µM. Further, the inhibition at 20 µg/mL in assay [2] turned out to be 41%; in the assay with bone (HOS), 34%; in the assay with prostate cancer (PC3), 20%; in assay [4], 39%; in the assay on lung carcinoma (A-549), 39%; in the assay with breast cancer (MCF-7) it was 40%. Further, the “Inhibition value of plateau-dose response (in brackets), SKMEL-2” value in the assay with melanoma (SKMEL-2) amounted to 53%.
For `CCOc1nc(-c2ccccc2OC)nc2ccccc12` [Compound 74, 4-Ethoxy-2-(2′-methoxyphenyl)quinazoline], the IC50 in [1] (setting [6]) turned out to be 214 µM.
Turning to `COc1ccc(C2NC(=O)c3ccccc3N2)cc1` (racemic) [Compound 62, 2,3-Dihydro-2-(4′-methoxyphenyl)-4-quinazolinone], the IC50 is above 20 µg/mL in assay [2]; 20 µg/mL (≈ 78.7 µM) in assay [3]; above 20 µg/mL in the assay with bone (HOS); above 20 µg/mL in the assay on prostate cancer (PC3); above 20 µg/mL in assay [4]; above 20 µg/mL in the assay with lung carcinoma (A-549). For the same molecule, the IC50 is above 20 µg/mL in the assay on breast cancer (MCF-7), above 20 µg/mL in assay [5], above 20 µg/mL with melanoma (SKMEL-2) and above 40 µM in the assay with bovine brain tubulin. Besides, the inhibition at 20 µg/mL in [2] was 14%; in the assay with bone (HOS) it was 13%; in the assay with prostate cancer (PC3) it was 14%; in assay [4], 19%; in the assay on lung carcinoma (A-549) it was 34%; with breast cancer (MCF-7) it was 44%. Besides, the inhibition at 20 µg/mL in assay [5] (read-out: Inhibition at highest test concentration (in brackets), KB-VIN) is 39%; in the assay on melanoma (SKMEL-2) it was 23%.
For `CC(=O)Oc1ccccc1C(=O)O` [Aspirin], in assay [1] (setting [6]), the IC50 turned out to be 20 µM.
Turning to `Cn1c(-c2ccccc2)nc2ccccc2c1=O` [Compound 77, N^3-methyl-2-phenyl-4-quinazolinone], in assay [1] (setting [6]), the IC50 was found to be 183 µM.
On to `COc1ccc(C2NC(=O)c3ccccc3N2)c(OC)c1` (racemic) [Compound 64, 2,3-Dihydro-2-(2′,4′-dimethoxyphenyl)-4-quinazolinone], for which the IC50 in assay [2] is above 20 µg/mL; in assay [3], 12.5 µg/mL (≈ 44 µM); in the assay on bone (HOS), above 20 µg/mL; with prostate cancer (PC3), above 20 µg/mL; in assay [4], above 20 µg/mL; in the assay on lung carcinoma (A-549) it was above 20 µg/mL. Also, the IC50 was above 20 µg/mL in the assay on breast cancer (MCF-7), 7.6 µg/mL (≈ 26.7 µM) in assay [5], above 20 µg/mL in the assay with melanoma (SKMEL-2) and above 40 µM in the assay on bovine brain tubulin. For the same molecule, the inhibition at 20 µg/mL in assay [2] was determined as 43%; in the assay on bone (HOS), 40%; in the assay with prostate cancer (PC3) it was 28%; in assay [4], 29%; in the assay on lung carcinoma (A-549), 43%; with breast cancer (MCF-7), 44%. Besides, the inhibition at 20 µg/mL in the assay on melanoma (SKMEL-2) is 37%.
